Here are results for three compounds from US11702400B2, “Salt types, crystal forms, and preparation methods for benzopyrazole compounds as RHO kinase inhibitors” (MEDSHINE DISCOVERY INC., priority 2019, dated 2023).

pIC50: −log10 of the molar value.

For orientation: pIC50 means the negative decadic logarithm of the IC50, by convention in mol/L.

Data set [1] in a line: Solid stability test of the crystal form B of the compound of formula (II-2) (XRPD). It is filed as physicochemical. Here is the method: About 10 mg of the crystal form was accurately weighed and added to a dry and clean glass flask, spread into a thin layer, covered with aluminum foil, pierced small holes and placed under the influence factor test conditions and under accelerated conditions. Samples placed under illumination (visible light 1200000 Lux, UV 200 W) conditions were placed in clear glass flasks, fully exposed, and samples used for XRPD detection were placed separately.
After the samples were removed at the time point, the cover was covered, and the flask was sealed using sealing film, and stored in −20° C. refrigerator. When preparing the sample, the sample was removed from the refrigerator, restored to room temperature; 80% ACN (10 mL) was added, and the sample was dissolved by sonication for 2 min to obtain a solution with a concentration of about 1 mg/mL, then the liquid phase was used for injection analysis, and the detection results were compared with the initial detection results on day 0.
Preparation of standard solution on day 0: About 10 mg of the crystal form was weighed and added to a 10 mL volumetric flask, dissolved with 80% ACN and the volume was fixed to the scale.

The target of another data set is ROCK1 (Homo sapiens, UniProt Q13464). Put plainly: In vitro evaluation of ROCK protein kinase inhibitory activity (33P-ATP filter-binding), ROCK1. In kind it is biochemical. To be noted: 1 nM kinase, 20 μM Long S6 Kinase substrate peptide, 2 hours room temperature. Here is the method: (§1) 1. In Vitro Evaluation of ROCK Protein Kinase Inhibitory Activity
(§2) Experimental purpose: To detect the IC50 value of ROCK protein kinase inhibition of compounds.
(§3) Experimental materials: assay buffer solution: 20 mM 4-hydroxyethyl piperazine ethanesulfonic acid (pH 7.5), 10 mM magnesium chloride, 1 mM ethylene glycol diethyl ether diaminetetraacetic acid, 0.02% polyoxyethylene lauryl ether, 0.02 mg/mL bovine serum albumin, 0.1 mM sodium vanadate, 2 mM dithiothreitol, 1% DMSO.
Experimental operation: ROCK protein kinase substrate Long S6 Kinase substrate peptide was added to a freshly prepared buffer solution at a concentration of 20 μM, then 1 nM ROCK protein kinase was added, and the mixture was stirred evenly. A series of DMSO diluents containing the compounds to be tested were added with Echo550 (started at […], diluted by 3 times series), preincubated at room temperature for 20 minutes, and ^33P-ATP (radiation intensity 10 μCi/μL) was added to initiate the reaction, and the reaction was carried out for 2 hours at room temperature. […] Radiation intensity was detected using the Filter-Binding method.
(§4) The protein kinase inhibitory activity of the compound was expressed as the residual protein kinase activity relative to the blank substrate (DMSO alone). IC50 values and curves were calculated using the Prism software package (GraphPad Software, San Diego Calif., USA).

In the next data set the target is ROCK2 (Homo sapiens, UniProt O75116). Briefly: In vitro evaluation of ROCK protein kinase inhibitory activity (33P-ATP filter-binding), ROCK2. It is filed as biochemical. Here is the method: as §1, §2, §3
Experimental operation: ROCK protein kinase substrate Long S6 Kinase substrate peptide was added to a freshly prepared buffer solution at a concentration of 20 μM, then 1 nM ROCK protein kinase was added, and the mixture was stirred evenly. A series of DMSO diluents containing the compounds to be tested were added with Echo550 (started at […], diluted by 3 times series), preincubated at room temperature for 20 minutes, and ^33P-ATP (radiation intensity 10 μCi/μL) was added to initiate the reaction, and the reaction was carried out for 2 hours at room temperature. The mixture was then filtered using P81 ion exchange paper (Whatman #3698-915) and washed with 0.75% phosphoric acid. Radiation intensity was detected using the Filter-Binding method.
as §4

Data set [2] can be described thus: Pharmacokinetic study of the racemate of the compound of formula (I) in SD rats. It is filed as in vivo. The method, then:
2.1 Pharmacokinetic Study of the Racemate of the Compound of Formula (I) in SD Rats
Experimental purpose: To study the pharmacokinetics of the compounds in SD rats
Experimental material: SD rats (male, 7-10 weeks old, WTLH/SLAC)
Experimental procedure: The pharmacokinetic characteristics of the compounds were tested in rodents after intravenous (IV) and oral (PO) administration using standard protocols. The candidate compounds were prepared into 0.2 mg/mL clarified solutions and administrated to rats for single intravenous injection and oral administration. The solvent for both intravenous and oral administration was 5% DMSO/95% (10% hydroxypropyl β-cyclodextrin) aqueous solution. […] Whole blood samples were collected within 24 hours, centrifuged at 3000 g for 15 minutes, and the supernatant was separated to obtain plasma samples, and the proteins were precipitated by adding acetonitrile solution containing internal standard; the mixture was well mixed and centrifuged, and the supernatant was injected for quantitative analysis of plasma drug concentrations by LC-MS/MS analysis method, and pharmacokinetic parameters were calculated, such as peak concentration (Cmax), clearance rate (CL), half-life (T1/2), […] (Vdss), area under the drug-time curve (AUC0-last), bioavailability (F), etc.

Chain of ROCK2 (O75116 whole entry): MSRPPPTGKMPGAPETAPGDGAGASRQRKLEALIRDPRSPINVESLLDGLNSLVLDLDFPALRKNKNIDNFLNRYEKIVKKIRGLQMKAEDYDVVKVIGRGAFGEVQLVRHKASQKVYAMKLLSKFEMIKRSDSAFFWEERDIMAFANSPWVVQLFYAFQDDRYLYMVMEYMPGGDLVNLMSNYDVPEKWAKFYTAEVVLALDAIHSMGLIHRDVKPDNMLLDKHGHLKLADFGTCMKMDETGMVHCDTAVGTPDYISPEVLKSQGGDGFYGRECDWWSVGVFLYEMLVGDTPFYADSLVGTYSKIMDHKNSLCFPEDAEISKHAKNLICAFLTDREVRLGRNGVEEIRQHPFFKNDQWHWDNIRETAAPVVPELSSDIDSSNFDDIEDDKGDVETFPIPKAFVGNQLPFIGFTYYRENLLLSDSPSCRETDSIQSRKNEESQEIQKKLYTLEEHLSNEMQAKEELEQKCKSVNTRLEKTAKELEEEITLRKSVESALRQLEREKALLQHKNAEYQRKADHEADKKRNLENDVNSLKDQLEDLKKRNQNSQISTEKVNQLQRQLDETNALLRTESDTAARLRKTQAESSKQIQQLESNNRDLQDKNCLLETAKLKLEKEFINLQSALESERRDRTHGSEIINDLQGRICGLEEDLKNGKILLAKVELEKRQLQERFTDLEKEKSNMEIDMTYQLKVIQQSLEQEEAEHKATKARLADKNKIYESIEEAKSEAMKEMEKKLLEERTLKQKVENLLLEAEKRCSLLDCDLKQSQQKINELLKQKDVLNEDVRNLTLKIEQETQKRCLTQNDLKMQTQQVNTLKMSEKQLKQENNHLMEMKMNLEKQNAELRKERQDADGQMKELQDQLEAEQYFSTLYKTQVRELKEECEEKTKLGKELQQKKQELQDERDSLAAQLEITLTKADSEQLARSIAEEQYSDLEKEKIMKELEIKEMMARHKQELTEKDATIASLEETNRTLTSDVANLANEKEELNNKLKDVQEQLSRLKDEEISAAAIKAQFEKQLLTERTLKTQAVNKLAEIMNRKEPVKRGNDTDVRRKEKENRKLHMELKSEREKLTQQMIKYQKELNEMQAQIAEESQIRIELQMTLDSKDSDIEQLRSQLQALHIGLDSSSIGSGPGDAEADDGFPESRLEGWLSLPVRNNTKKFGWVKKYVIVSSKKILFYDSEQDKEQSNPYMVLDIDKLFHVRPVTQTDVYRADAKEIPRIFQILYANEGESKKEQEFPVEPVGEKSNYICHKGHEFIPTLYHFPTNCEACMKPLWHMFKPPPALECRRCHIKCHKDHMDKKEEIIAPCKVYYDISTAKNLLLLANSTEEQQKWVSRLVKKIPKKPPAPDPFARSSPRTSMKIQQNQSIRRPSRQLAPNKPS
Chain of ROCK1 (Q13464 whole entry): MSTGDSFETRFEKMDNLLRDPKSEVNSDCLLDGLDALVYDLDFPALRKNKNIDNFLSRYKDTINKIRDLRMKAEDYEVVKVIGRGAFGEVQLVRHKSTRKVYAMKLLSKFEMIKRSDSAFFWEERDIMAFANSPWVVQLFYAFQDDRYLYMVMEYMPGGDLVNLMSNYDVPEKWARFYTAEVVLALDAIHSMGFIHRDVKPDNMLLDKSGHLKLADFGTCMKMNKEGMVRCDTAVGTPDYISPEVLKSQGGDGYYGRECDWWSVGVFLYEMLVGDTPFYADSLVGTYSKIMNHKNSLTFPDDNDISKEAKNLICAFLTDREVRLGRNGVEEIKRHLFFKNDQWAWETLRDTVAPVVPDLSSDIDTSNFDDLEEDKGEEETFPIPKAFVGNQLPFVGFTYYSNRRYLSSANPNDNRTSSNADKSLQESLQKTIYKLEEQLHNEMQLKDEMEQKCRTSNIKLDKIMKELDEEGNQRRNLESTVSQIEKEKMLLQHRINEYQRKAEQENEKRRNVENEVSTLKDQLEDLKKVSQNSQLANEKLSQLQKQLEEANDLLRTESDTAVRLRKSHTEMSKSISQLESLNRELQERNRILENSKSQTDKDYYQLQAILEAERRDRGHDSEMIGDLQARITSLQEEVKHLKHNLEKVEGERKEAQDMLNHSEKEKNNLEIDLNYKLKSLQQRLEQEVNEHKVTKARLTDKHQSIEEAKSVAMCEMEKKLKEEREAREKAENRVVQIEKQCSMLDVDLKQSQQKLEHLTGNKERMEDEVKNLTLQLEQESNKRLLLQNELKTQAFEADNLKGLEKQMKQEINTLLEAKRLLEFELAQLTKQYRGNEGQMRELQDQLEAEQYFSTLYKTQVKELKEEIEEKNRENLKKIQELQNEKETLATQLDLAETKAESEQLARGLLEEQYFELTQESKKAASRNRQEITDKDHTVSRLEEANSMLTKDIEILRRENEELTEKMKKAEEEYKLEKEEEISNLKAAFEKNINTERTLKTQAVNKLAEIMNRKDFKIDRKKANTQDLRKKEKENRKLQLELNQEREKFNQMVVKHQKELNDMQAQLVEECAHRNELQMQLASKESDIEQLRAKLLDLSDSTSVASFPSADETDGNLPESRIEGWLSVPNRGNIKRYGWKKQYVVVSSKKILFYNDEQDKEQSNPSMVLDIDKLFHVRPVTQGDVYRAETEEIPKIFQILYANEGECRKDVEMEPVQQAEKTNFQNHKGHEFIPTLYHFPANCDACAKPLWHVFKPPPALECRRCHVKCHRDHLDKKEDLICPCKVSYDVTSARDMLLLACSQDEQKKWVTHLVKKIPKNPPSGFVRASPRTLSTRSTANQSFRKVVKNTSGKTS

As to `CC(=O)O.COc1cccc(C(CN)NC(=O)c2cc(-c3ccc4[nH]nc(C)c4c3)ccn2)c1` (centres unmarked), the Crystal form entry in data set [1] (0 day) is recorded as “Crystal form B”; in data set [1] (High humidity (relative humidity 75%, open), 5 days), “Crystal form B”; in data set [1] (High humidity (relative humidity 75%, open), 10 days), “Crystal form B”; in data set [1] (High humidity (relative humidity 92.5%, open), 5 days) it was “Crystal form B”; in data set [1] (High humidity (relative humidity 92.5%, open), 10 days), “Crystal form B”; in data set [1] (High temperature (60° C., open), 5 days), “Crystal form B”. The Crystal form result in data set [1] (High temperature (60° C., open), 10 days) was “Crystal form B”; in data set [1] (High temperature and humidity (40° C. relative humidity 75%, open), first entry, 5 days) it was “Crystal form B”; in data set [1] (High temperature and humidity (40° C. relative humidity 75%, open), first entry, 10 days) it was “Crystal form B”; in data set [1] (High temperature and humidity (40° C. relative humidity 75%, open), second entry, 5 days), “Crystal form B”; in data set [1] (High temperature and humidity (40° C. relative humidity 75%, open), second entry, 10 days), “Crystal form B”; in data set [1] (Illumination (total illuminance = 1.2 × 10^6 Lux·hr/near UV = 200 w·hr/m^2, open), 5 days) it was “Crystal form B”. The Crystal form result in data set [1] (Illumination (total illuminance = 1.2 × 10^6 Lux·hr/near UV = 200 w·hr/m^2, open), 10 days) was “Crystal form B”. Also, the “solid stability (conclusion in words)” value in data set [1] (high temperature, high humidity and strong illumination conditions) is on record as “good stability”.

In the case of `COc1cccc([C@@H](CN)NC(=O)c2cc(-c3ccc4[nH]nc(C)c4c3)ccn2)c1` [Compound of formula (II)], the negative logarithm of the IC50 (pIC50) on ROCK1 was 7.89; on ROCK2 (1 nM kinase, 20 μM Long S6 Kinase substrate peptide, 33P-ATP, 2 hours room temperature), 8.70. Also, at ROCK2, the “inhibitory activity against ROCK2 (conclusion in words)” value is given as “good inhibitory activity”. Also, on ROCK2 (ROCK2 versus ROCK1), the “selectivity for ROCK2 (conclusion in words)” value is “some selectivity”.

In the case of `COc1cccc(C(CN)NC(=O)c2cc(-c3ccc4[nH]nc(C)c4c3)ccn2)c1` (racemic) [Racemate of compound of formula (I)], the “pharmacokinetic properties (conclusion in words)” value in data set [2] is on record as “good pharmacokinetic properties”. The Vd in data set [2] (rat, plasma, male, IV 1 mg/kg, read-out: Tissue distribution Vdss) is 6 L/kg.
